From PMC9020084 (iScience, 2022)

Tests used:
Type in all cases: biochemical
SHIP1ΔC2 (S1ΔC2) = target: T1, SHIP1ΔC2 (S1ΔC2) (Homo sapiens, UniProt Q92835); experiment: malachite green phosphate release; conditions: agonist (activation); C2 domain deleted
T1 sequence (Q92835 397-730): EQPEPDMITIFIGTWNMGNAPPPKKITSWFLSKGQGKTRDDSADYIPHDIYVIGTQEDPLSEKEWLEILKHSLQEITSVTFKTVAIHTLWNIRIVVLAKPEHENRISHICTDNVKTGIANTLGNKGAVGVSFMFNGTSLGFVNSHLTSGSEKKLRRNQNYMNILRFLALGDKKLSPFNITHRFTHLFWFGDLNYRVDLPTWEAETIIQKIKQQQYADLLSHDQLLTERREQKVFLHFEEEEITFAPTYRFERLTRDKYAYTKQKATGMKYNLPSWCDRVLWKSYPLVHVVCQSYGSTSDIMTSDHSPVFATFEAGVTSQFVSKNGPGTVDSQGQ

SHIP1-Enz (S1-Enz) = target: T2, SHIP1-Enz (S1-Enz) (Homo sapiens, UniProt Q92835); experiment: fluorescence polarization PI
T2 sequence (Q92835 397-864): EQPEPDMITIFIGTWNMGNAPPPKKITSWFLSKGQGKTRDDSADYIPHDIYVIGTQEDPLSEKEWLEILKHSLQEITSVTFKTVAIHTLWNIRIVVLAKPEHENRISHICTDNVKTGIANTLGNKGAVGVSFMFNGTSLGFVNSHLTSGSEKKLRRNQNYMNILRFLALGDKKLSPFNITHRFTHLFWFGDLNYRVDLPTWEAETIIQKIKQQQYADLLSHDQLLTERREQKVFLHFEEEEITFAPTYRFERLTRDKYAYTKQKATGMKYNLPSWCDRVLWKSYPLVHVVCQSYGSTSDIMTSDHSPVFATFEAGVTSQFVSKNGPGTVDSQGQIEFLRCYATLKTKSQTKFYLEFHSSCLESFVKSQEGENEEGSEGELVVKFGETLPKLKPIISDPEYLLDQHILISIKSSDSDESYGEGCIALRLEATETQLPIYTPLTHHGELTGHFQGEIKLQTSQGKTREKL

SHIP2-Enz (S2-Enz) = target: T3, SHIP2-Enz (S2-Enz) (Homo sapiens, UniProt O15357); experiment: fluorescence polarization PI
T3 sequence (O15357 414-872): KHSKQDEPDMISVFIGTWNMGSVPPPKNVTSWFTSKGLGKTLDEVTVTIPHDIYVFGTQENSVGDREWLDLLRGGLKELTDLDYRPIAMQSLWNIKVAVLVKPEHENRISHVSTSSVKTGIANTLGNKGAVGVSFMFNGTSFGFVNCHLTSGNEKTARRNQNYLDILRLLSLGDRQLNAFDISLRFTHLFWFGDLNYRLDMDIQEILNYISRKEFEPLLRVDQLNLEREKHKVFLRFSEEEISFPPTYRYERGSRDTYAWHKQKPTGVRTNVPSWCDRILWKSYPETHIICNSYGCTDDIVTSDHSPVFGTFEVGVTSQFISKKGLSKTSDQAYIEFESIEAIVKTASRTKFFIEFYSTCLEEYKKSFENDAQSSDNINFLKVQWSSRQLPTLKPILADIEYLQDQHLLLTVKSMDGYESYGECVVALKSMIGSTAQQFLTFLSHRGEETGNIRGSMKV

## Cc1sc(S(=O)(=O)N2CCSCC2)cc1NC(=O)CNS(=O)(=O)c1ccc(F)cc1 [compound 8, K306]
SHIP1ΔC2 (S1ΔC2)
  malachite green phosphate release: K306 retained significant agonistic activity for SHIP1ΔC2
SHIP1-Enz (S1-Enz)
  EC50: 119 nM
SHIP2-Enz (S2-Enz)
  EC50: 1170 nM
